Twelve compounds from US20230135215A1, “COMPOUNDS AS CDK2/4/6 INHIBITORS” (Fochon Biosciences, Ltd., priority 2020, published 2023) can be followed below.

Experiment [1] relates to HCC1806 cells. The experiment can be described thus: Cell proliferation assay (MTS), HCC1806 (CDK4/6 independent) cells. It is filed as cell-based. Conditions: Homo sapiens, HCC1806 (CDK4/6 independent) cell proliferation inhibition, 120 h incubation, absorbance 490 nm. An excerpt:
(§1) MTS testing kit was purchased from Promega (Madison, Wis., USA). The RPMI-1640, DMEM, Fetal bovine serum and Penicillin-Streptomycin were purchased from BI (Biological Industries, Beit Haemek, Israel). Dimethyl sulfoxide (DMSO) was purchased from Sigma (St. Louis, Mo., USA).
(§2) To investigate whether a compound is able to inhibit the activity of CDK2/4/6 in cells, we developed a mechanism-based assay using HCC1806 (CDK4/6 independent) and Hs68 (CDK4/6 dependent) cell lines. In this assay, inhibition of CDK2/4/6 was detected by the cell proliferation inhibition of HCC1806 and Hs68 cells. HCC806 and HS68 cells cultured in PRMI-1640 and DMEM supplemented with 10% fetal bovine serum respectively to 40-80% confluence were collected and plated into 96-well plates at desired cell density of 5×10^3/mL. Plates were incubated at 37° C., with 5% CO2 for 24 h. Compounds were serially diluted and added to the plates with the final concentrations as 10000, 3333.3, 1111.1, 370.4, 123.5, 41.2, 13.7, 4.6 and 1.5 nM. Plates were incubated at 37° C., with 5% CO2 for 120 h. A mixture of 20 μl MTS/100 μl medium were added to each well and the plates were incubated at 37° C., with 5% CO2 for exactly 2 h. The absorbance was measured by a microplate reader at 490 nm. IC50 was calculated using GraphPad Prism 5.0 software.

For experiment [2], the system named is Hs68 cells. Nature of the experiment: Cell proliferation assay (MTS), Hs68 (CDK4/6 dependent) cells. It is filed as cell-based. The conditions noted are these: Homo sapiens, Hs68 (CDK4/6 dependent) cell proliferation inhibition, 120 h incubation, absorbance 490 nm.
From the text: as §1, §2

For `CS(=O)(=O)N1CCC(Nc2ncc3cc(C(F)F)c(=O)n([C@@H]4CCCC45CC5)c3n2)CC1` [Example 19, (R)-6-(difluoromethyl)-2-((1-(methyl-sulfonyl)piperidin-4-yl)amino)-8-(spiro[2.4]heptan-4-yl)pyrido[2,3-d]pyrimidin-7(8H)-one], the IC50 in experiment [1] is 139 nM. Consider `CS(=O)(=O)N1CCC(Nc2ncc3cc(Br)c(=O)n(C4CCCC45CC5)c3n2)CC1` (stereo not drawn) [Example 8, 6-Bromo-2-((1-(methylsulfonyl)piperidin-4-yl)amino)-8-(spiro[2,4]heptan-4-yl)pyrido[2,3-d]pyrimidin-7(8H)-one], for which the IC50 in experiment [2] is 105 nM; in experiment [1], 305 nM. For `CS(=O)(=O)N1CCC(Nc2ncc3cc(Cl)c(=O)n(C4CCCC45CC5)c3n2)CC1` (stereo not drawn) [Example 7, 6-Chloro-2-((1-(methylsulfonyl)piperidin-4-yl)amino)-8-(spiro[2,4]heptan-4-yl)pyrido[2,3-d]pyrimidin-7(8H)-one], in that order: 233 nM and 308 nM. Compound `NS(=O)(=O)N1CCC(Nc2ncc3ccc(=O)n([C@H]4CCCC45CC5)c3n2)CC1` [Example 30, (S)-4-((7-oxo-8-(spiro[2.4]heptan-4-yl)-7,8-dihydropyrido[2,3-d]pyrimidin-2-yl)amino)piperidine-1-sulfonamide] came in with an IC50 in experiment [1] of 409 nM. Still for that read-out and setting: as for `CS(=O)(=O)N1CCC(Nc2ncc3cc(C(F)F)c(=O)n([C@H]4CCCC45CC5)c3n2)CC1` [Example 20, (S)-6-(difluoromethyl)-2-((1-(methylsulfonyl)piperidin-4-yl)amino)-8-(spiro[2.4]heptan-4-yl)pyrido[2,3-d]pyrimidin-7(8H)-one], the figure is 211 nM. Still for that read-out and setting: next, `CS(=O)(=O)N1CCC(Nc2ncc3cc(F)c(=O)n(C4CCCC45CC5)c3n2)CC1` (stereo not drawn) [Example 22, 6-fluoro-2-((1-(methylsulfonyl)piperidin-4-yl)amino)-8-(spiro[2.4]heptan-4-yl) pyrido[2,3-d]pyrimidin-7(8H)-one]: 318 nM. As for `CNS(=O)(=O)N1CCC(Nc2ncc3ccc(=O)n([C@H]4CCCC45CC5)c3n2)CC1` [Example 31, (S)-N-methyl-4-((7-oxo-8-(spiro[2.4]heptan-4-yl)-7,8-dihydropyrido[2,3-d]pyrimidin-2-yl)amino)piperidine-1-sulfonamide], the results for the IC50 in experiment [2] and in experiment [1] were 418 nM and 118 nM, respectively. For `CS(=O)(=O)N1CCC(Nc2ncc3ccc(=O)n([C@@H]4CCCC45CC5)c3n2)CC1` [Example 23, (R)-2-((1-(methylsulfonyl)piperidin-4-yl)amino)-8-(spiro[2.4]heptan-4-yl)pyrido[2,3-d]pyrimidin-7(8H)-one], the IC50 worked out at 489 nM in experiment [2] and 150 nM in experiment [1]. Turning to `CS(=O)(=O)N1CCC(Nc2ncc3cc(C(F)F)c(=O)n(C4CCCC45CC5)c3n2)CC1` (stereo not drawn) [Example 18, 6-(difluoromethyl)-2-((1-(methylsulfonyl)piperidin-4-yl)amino)-8-(spiro[2.4]heptan-4-yl)pyrido[2,3-d]pyrimidin-7(8H)-one], the midpoint of inhibition in experiment [1], the IC50, lay at 233 nM. That is a sub-micromolar value. Turning to `CS(=O)(=O)N1CCC(Nc2ncc3ccc(=O)n([C@H]4CCCC45CC5)c3n2)CC1` [Example 24, (S)-2-((1-(methylsulfonyl)piperidin-4-yl)amino)-8-(spiro[2.4]heptan-4-yl)pyrido[2,3-d]pyrimidin-7(8H)-one], the figures for the IC50 in experiment [2] and in experiment [1] were 437 nM and 78 nM, respectively. Turning to `Cc1cc2cnc(NC3CCN(S(C)(=O)=O)CC3)nc2n(C2CCCC23CC3)c1=O` (stereo not drawn) [Example 2, 6-Methyl-2-((1-(methylsulfonyl)piperidin-4-yl)amino)-8-(spiro[2,4]heptan-4-yl)pyrido[2,3-d]pyrimidin-7(8H)-one], the midpoint of inhibition in experiment [2], the IC50, lay at 322 nM. In the case of `CS(=O)(=O)N1CCC(Nc2ncc3ccc(=O)n(C4CCCC45CC5)c3n2)CC1` (stereo not drawn) [Example 1, 2-((1-(Methylsulfonyl)piperidin-4-yl)amino)-8-(spiro[2,4]heptan-4-yl)pyrido[2,3-d]pyrimidin-7(8H)-one], the IC50 in experiment [2] is 318 nM; in experiment [1], 379 nM.
